# Reference: PubChem BioAssay AID1996
# Conditions: buffer; pH 7.4; 200.0 µM
row,SMILES,solubility kinetic [µg/mL]
1,COC(=O)c1nc(N)sc1C(C)C,> 30
2,CNC(=S)Nc1cc2oc3ccccc3c2cc1OC,33.7
3,CSc1nc(N)cc(=O)[nH]1,> 23.6
4,COc1ccccc1Nc1nc(NCCO)nc(N)c1[N+](=O)[O-],3.4
5,CC1(C)Cc2c(sc(NC(=O)/C=C/C(=O)O)c2C#N)CO1,41.4
6,O=C(Nc1ccc2oc(=O)ccc2c1)c1ccc2ccccc2c1,< 0.7
7,CCCCc1ccc(S(=O)(=O)NC2CCS(=O)(=O)C2)cc1 (stereo not given),47.9
8,O=C(COC(=O)/C=C/c1ccc2c(c1)OCO2)NCc1ccccc1,1.5
9,CC(C)c1nc2ccccc2n1CC(O)COC1CCCCC1 (stereo not given),> 47.5
10,O=C(CSc1ccccn1)N1CCNC1=O,> 35.6
11,COC(=O)C1CSC(c2ccc(Cl)cc2)N1C(=O)c1ccccc1 (stereo not given),34.1
12,Cc1cccc(N2CCN(C(=O)[C@H](C)N3C(=O)C4CC=CCC4C3=O)CC2)c1C (stereo not given in full),> 59.3
13,COc1ccc(OC)c(C(C)NC(=O)C23CC4CC(CC(C4)C2)C3)c1 (stereo not given),0.8
14,CCn1cnc2c1c(=O)[nH]c(=O)n2Cc1ccccc1,34.6
15,Cc1ccccc1NC(=O)C1CC(=O)OC12CCOC(C)(C)C2 (stereo not given),> 47.6
16,COc1ccc(OC)c(/C=C/C(=O)OCC(=O)N2CCCCC2)c1,> 50
17,S=C(NC1CCCCC1)N1CCn2cccc2C1c1ccncc1 (stereo not given),36.1
18,CCC1(C)Cc2ccccc2-c2[nH]c(=S)[nH]c(=O)c21 (stereo not given),22.1
19,CC(C)(C)N(Cc1ccccc1)C(=O)COC(=O)c1ccc(S(=O)(=O)N2CCOCC2)cc1,18.4
20,COC(=O)CCC(=O)NC(=S)Nc1ccccc1F,36.8

row,SMILES,solubility kinetic [µg/mL]
1,Cc1ccc(NC(=O)/C(=C\c2ccccc2)NC(=O)c2ccco2)cc1,4.7
2,CCN(CC(=O)N1CCOCC1)S(=O)(=O)c1ccc(F)cc1,41.2
3,COc1ccc(NC(=O)C2COc3ccccc3O2)cc1 (stereo not given),> 42.8
4,CCOC(=O)C1CCN(CCC(=O)Nc2cc(C)cc(C)c2)CC1,> 49.9
5,O=C(CSc1ccccn1)Nc1ccc(Cl)c([N+](=O)[O-])c1,1.7
6,Cc1cc(=O)n2c3ccccc3n(C)c2n1,> 32
7,CN1CCN(C(=O)c2ccccc2[N+](=O)[O-])CC1,31.5
8,Cc1ccc(NS(=O)(=O)c2c(C)[nH]c(=O)[nH]c2=O)c(C)c1,> 46.4
9,COc1ccccc1N1C(N)=NC(N)=NC12CCCCC2.Cl,> 48.6
10,Cc1cc(SCc2ccccc2Cl)nc(=O)[nH]1,30
11,COc1ccc(S(=O)(=O)NC(C)C(=O)N2CCCC2)cc1C (stereo not given),41.9
12,CCOc1ccccc1NC(=S)NC1CC2CCC1C2 (stereo not given),5
13,Fc1ccc(-c2nc(-c3cccs3)no2)cc1,< 0.3
14,O=c1cc(CN2CCOCC2)c2cc(Cl)c(O)cc2o1,> 44.4
15,CC(=O)NCCc1c(C)n(Cc2ccccc2)c2ccccc12,> 46
16,O=C(Nc1cccc(F)c1)c1c(O)c2ccccc2[nH]c1=O,< 0.3
17,CCCc1nnc(NC(=O)CS(=O)(=O)c2ccccc2)s1,> 48.8
18,NC(=O)c1cnn(-c2ccc3ccccc3c2)c1N,> 37.8
19,Cc1cc(=O)c(C(=O)O)nn1-c1ccccc1C(F)(F)F,> 44.7
20,O=C(NC1CCOc2ccccc21)c1ccccn1 (stereo not given),36.1

row,SMILES,solubility kinetic [µg/mL]
1,CN1CCC2(CC1)C(C#N)=C(N)NC(S)=C2C#N,> 39.2
2,Cc1ccccc1N1CCN(Cc2ccc3c(c2)OCO3)CC1,21.5
3,CCOC(=O)c1c(O)c2ccccc2n(C)c1=O,> 37.1
4,O=C(Nc1nc2ccccc2[nH]1)c1ccc(Br)o1,15.5
5,COC(=O)/C(=C\C(=O)c1ccc([N+](=O)[O-])cc1)Nc1ccc(OC)cc1,< 0.4
6,CC1(C)CC(=O)C(N=Nc2cccnc2)=C(O)C1,> 36.8
7,C/C(N)=C(/C#N)C(=O)COC(=O)C1CCN(S(=O)(=O)c2cccs2)CC1,10.9
8,CC1CCCCC1NC(=O)COC(=O)c1cc(=O)c2ccccc2o1 (stereo not given),> 51.5
9,CC(=O)Oc1ccc(C2(C)CC(C)(C)NC(=S)N2C)c(OC(C)=O)c1 (stereo not given),> 54.7
10,OCCN1CCN(c2ncnc3sc4c(c23)CCCC4)CC1,> 47.8
11,CC(NC(=O)c1ccccc1[N+](=O)[O-])C1CC2CCC1C2 (stereo not given),35.2
12,COc1ccc(C(=O)Cn2cnc3ccccc3c2=O)cc1,31
13,CN(Cc1nc2ccccc2c(=O)[nH]1)C(=O)C1CC(=O)N(c2cccc3ccccc23)C1 (stereo not given),> 64
14,Cc1ccccc1CC(=O)N1CCCC1,29.7
15,CC(=Nc1ccccc1N)c1c(O)n(C)c(=O)[nH]c1=O,> 41.1
16,O=[N+]([O-])c1cccc(C(O)C23CN4CN(CN(C4)C2)C3)c1 (stereo not given),> 43.5
17,COC(=O)c1ccccc1C(=O)N(c1ccccc1)c1ccccc1,44.4
18,COC(CNc1ncnc2c1cnn2C)OC,> 35.6
19,CCc1ccccc1NC(=O)NCc1cccnc1,> 38.3
20,CCCCN1C(=O)C(=O)N(CC(=O)Nc2ccc(OC(F)(F)F)cc2)C1=O,6.6
